{"source": "patent US20120196899A1", "about": "“METHODS AND PRODUCTS FOR TREATING INFLAMMATION” (Rock Creek Pharmaceuticals, Inc., priority 2010, published 2012)", "assay": "Necropsy observations and organ weights, day 15", "format": "in vivo, Sprague-Dawley rats", "conditions": "for Tissue Collection Weights: Brain / Tissue Collection Weights: Heart / Tissue Collection Weights: Kidneys / Tissue Collection Weights: Liver / Tissue Collection Weights: Lungs / Tissue Collection Weights: Ovaries/uterus / Tissue Collection Weights: Small intestine / Tissue Collection Weights: Spleen / Tissue Collection Weights: Thymus / Tissue Collection Weights: Prostate / Tissue Collection Weights: Testes: individual animals; for Organ Weight Brain, Mean / Organ Weight Heart, Mean / Organ Weight Kidneys, Mean / Organ Weight Liver, Mean / Organ Weight Lungs, Mean / Organ Weight Prostate, Mean / Organ Weight Small intestine, Mean / Organ Weight Spleen, Mean / Organ Weight Testes, Mean / Organ Weight Thymus, Mean: male rats", "protocol": "Body weight and food consumption was measured daily for 14 days. On day 15, urine was collected on all surviving animals. The animals were euthanized and bled via cardiac puncture, and blood was collected for analysis. Tissues were collected, weighed, evaluated for gross abnormalities, and stored in 10% neutral-buffered formalin.\nOn day 15, urine was collected on all surviving animals for urinalysis. The animals were euthanized and bled via cardiac puncture. Blood was collected for hematology, clinical chemistry, and coagulation analysis. Tissues were collected, weighed, and stored in 10% neutral-buffered formalin for possible future analysis.", "key": {"[1]": {"conditions": "Group B, 0.1 mg/kg, females, 0.1 mg/kg"}, "[2]": {"conditions": "Group B, 0.1 mg/kg, males, 0.1 mg/kg"}, "[3]": {"conditions": "Group C, 0.75 mg/kg, females, 0.75 mg/kg"}, "[4]": {"conditions": "Group C, 0.75 mg/kg, males, 0.75 mg/kg"}, "[5]": {"conditions": "anatabine 0.1 mg/kg single i.v."}, "[6]": {"conditions": "anatabine 0.75 mg/kg single i.v."}, "[7]": {"conditions": "female animals, 0.1 mg/kg, group mean"}, "[8]": {"conditions": "female animals, 0.75 mg/kg, group mean"}}, "note": "Values joined by “and” are separate entries in the source; they are usually repeats but may differ in a detail not shown here. Equal entries are not always repeated.", "data": [{"smiles": "C1=CCC(c2cccnc2)NC1", "note": "(racemic) [Anatabine, 1,2,3,6-tetrahydro-[2,3′]bipyridinyl]", "values": [{"measurement": "Tissue Collection Weights: Brain", "setting": "[1]", "result": "1.91 g and 1.89 g (2×) and 1.75 g and 1.86 g"}, {"measurement": "Tissue Collection Weights: Heart", "setting": "[1]", "result": "1.29 g and 1.12 g and 0.95 g and 1.05 g and 1.25 g"}, {"measurement": "Tissue Collection Weights: Kidneys", "setting": "[1]", "result": "2.46 g and 2.02 g (2×) and 2.14 g and 2.25 g"}, {"measurement": "Tissue Collection Weights: Liver", "setting": "[1]", "result": "11.54 g and 10.09 g and 9.94 g and 12.94 g and 9.67 g"}, {"measurement": "Tissue Collection Weights: Lungs", "setting": "[1]", "result": "1.42 g and 1.39 g and 1.15 g and 1.52 g and 1.59 g"}, {"measurement": "Tissue Collection Weights: Ovaries/uterus", "setting": "[1]", "result": "0.96 g and 1.79 g and 0.84 g and 1.42 g and 0.70 g"}, {"measurement": "Tissue Collection Weights: Small intestine", "setting": "[1]", "result": "0.87 g and 0.71 g and 0.55 g and 0.49 g and 0.63 g"}, {"measurement": "Tissue Collection Weights: Spleen", "setting": "[1]", "result": "0.79 g and 0.62 g and 0.51 g and 0.67 g and 0.65 g"}, {"measurement": "Tissue Collection Weights: Thymus", "setting": "[1]", "result": "0.68 g and 0.59 g and 0.49 g and 0.71 g and 0.73 g"}, {"measurement": "Tissue Collection Weights: Brain", "setting": "[2]", "result": "2.35 g and 2.16 g and 2.24 g and 2.11 g and 1.88 g"}, {"measurement": "Tissue Collection Weights: Heart", "setting": "[2]", "result": "1.71 g and 1.59 g and 1.97 g and 1.60 g and 1.85 g"}, {"measurement": "Tissue Collection Weights: Kidneys", "setting": "[2]", "result": "3.55 g and 3.33 g and 3.70 g and 3.27 g and 3.99 g"}, {"measurement": "Tissue Collection Weights: Liver", "setting": "[2]", "result": "17.92 g and 15.45 g and 16.98 g and 16.32 g and 17.38 g"}, {"measurement": "Tissue Collection Weights: Lungs", "setting": "[2]", "result": "2.31 g and 1.77 g and 2.08 g and 1.91 g and 1.83 g"}, {"measurement": "Tissue Collection Weights: Prostate", "setting": "[2]", "result": "0.72 g and 0.49 g and 0.73 g and 0.53 g and 0.48 g"}, {"measurement": "Tissue Collection Weights: Small intestine", "setting": "[2]", "result": "0.61 g and 0.96 g and 0.88 g and 0.50 g and 0.35 g"}, {"measurement": "Tissue Collection Weights: Spleen", "setting": "[2]", "result": "0.91 g and 0.66 g and 0.82 g and 0.93 g and 0.76 g"}, {"measurement": "Tissue Collection Weights: Testes", "setting": "[2]", "result": "3.69 g and 3.64 g and 3.14 g and 3.35 g and 3.29 g"}, {"measurement": "Tissue Collection Weights: Thymus", "setting": "[2]", "result": "0.74 g (2×) and 0.76 g and 0.71 g and 0.81 g"}, {"measurement": "Tissue Collection Weights: Brain", "setting": "[3]", "result": "1.99 g and 1.93 g and 1.73 g and 2.06 g and 1.81 g"}, {"measurement": "Tissue Collection Weights: Heart", "setting": "[3]", "result": "1.09 g and 1.21 g and 1.23 g and 1.03 g and 0.99 g"}, {"measurement": "Tissue Collection Weights: Kidneys", "setting": "[3]", "result": "2.08 g and 2.20 g and 2.68 g and 2.36 g"}, {"measurement": "Tissue Collection Weights: Liver", "setting": "[3]", "result": "10.71 g and 8.65 g and 11.37 g and 10.19 g"}, {"measurement": "Tissue Collection Weights: Lungs", "setting": "[3]", "result": "1.46 g and 1.39 g and 1.62 g and 1.30 g and 1.49 g"}, {"measurement": "Tissue Collection Weights: Ovaries/uterus", "setting": "[3]", "result": "0.81 g and 1.50 g and 0.72 g and 1.23 g and 3.65 g"}, {"measurement": "Tissue Collection Weights: Small intestine", "setting": "[3]", "result": "0.72 g and 0.37 g and 0.85 g and 0.47 g and 1.34 g"}, {"measurement": "Tissue Collection Weights: Spleen", "setting": "[3]", "result": "0.70 g and 0.65 g (2×) and 0.51 g and 0.49 g"}, {"measurement": "Tissue Collection Weights: Thymus", "setting": "[3]", "result": "0.56 g and 0.53 g and 0.63 g and 0.52 g and 0.54 g"}, {"measurement": "Tissue Collection Weights: Brain", "setting": "[4]", "result": "2.01 g and 2.19 g and 2.12 g and 2.00 g and 2.02 g"}, {"measurement": "Tissue Collection Weights: Heart", "setting": "[4]", "result": "1.52 g and 1.38 g and 1.56 g and 1.39 g and 1.29 g"}, {"measurement": "Tissue Collection Weights: Kidneys", "setting": "[4]", "result": "3.45 g and 2.77 g and 3.49 g and 3.16 g and 2.89 g"}, {"measurement": "Tissue Collection Weights: Liver", "setting": "[4]", "result": "14.92 g and 13.91 g and 14.70 g and 14.01 g and 14.94 g"}, {"measurement": "Tissue Collection Weights: Lungs", "setting": "[4]", "result": "1.86 g and 1.97 g and 1.72 g and 1.95 g and 1.58 g"}, {"measurement": "Tissue Collection Weights: Prostate", "setting": "[4]", "result": "0.49 g (2×) and 0.65 g and 0.46 g and 0.45 g"}, {"measurement": "Tissue Collection Weights: Small intestine", "setting": "[4]", "result": "0.54 g and 1.41 g and 0.56 g and 0.41 g and 0.47 g"}, {"measurement": "Tissue Collection Weights: Spleen", "setting": "[4]", "result": "0.71 g and 0.63 g and 0.79 g and 0.93 g and 0.64 g"}, {"measurement": "Tissue Collection Weights: Testes", "setting": "[4]", "result": "3.19 g and 3.84 g and 3.03 g and 3.28 g and 2.70 g"}, {"measurement": "Tissue Collection Weights: Thymus", "setting": "[4]", "result": "1.02 g and 0.52 g and 0.67 g and 0.69 g and 0.47 g"}, {"measurement": "Organ Weight Brain, Mean", "setting": "[5]", "result": 2.15, "unit": "g"}, {"measurement": "Organ Weight Heart, Mean", "setting": "[5]", "result": 1.74, "unit": "g"}, {"measurement": "Organ Weight Kidneys, Mean", "setting": "[5]", "result": 3.57, "unit": "g"}, {"measurement": "Organ Weight Liver, Mean", "setting": "[5]", "result": 16.81, "unit": "g"}, {"measurement": "Organ Weight Lungs, Mean", "setting": "[5]", "result": 1.98, "unit": "g"}, {"measurement": "Organ Weight Prostate, Mean", "setting": "[5]", "result": 0.59, "unit": "g"}, {"measurement": "Organ Weight Small intestine, Mean", "setting": "[5]", "result": 0.66, "unit": "g"}, {"measurement": "Organ Weight Spleen, Mean", "setting": "[5]", "result": 0.82, "unit": "g"}, {"measurement": "Organ Weight Testes, Mean", "setting": "[5]", "result": 3.42, "unit": "g"}, {"measurement": "Organ Weight Thymus, Mean", "setting": "[5]", "result": 0.75, "unit": "g"}, {"measurement": "Organ Weight Brain, Mean", "setting": "[6]", "result": 2.07, "unit": "g"}, {"measurement": "Organ Weight Heart, Mean", "setting": "[6]", "result": 1.43, "unit": "g"}, {"measurement": "Organ Weight Kidneys, Mean", "setting": "[6]", "result": 3.15, "unit": "g"}, {"measurement": "Organ Weight Liver, Mean", "setting": "[6]", "result": 14.50, "unit": "g"}, {"measurement": "Organ Weight Lungs, Mean", "setting": "[6]", "result": 1.82, "unit": "g"}, {"measurement": "Organ Weight Prostate, Mean", "setting": "[6]", "result": 0.51, "unit": "g"}, {"measurement": "Organ Weight Small intestine, Mean", "setting": "[6]", "result": 0.68, "unit": "g"}, {"measurement": "Organ Weight Spleen, Mean", "setting": "[6]", "result": 0.74, "unit": "g"}, {"measurement": "Organ Weight Testes, Mean", "setting": "[6]", "result": 3.21, "unit": "g"}, {"measurement": "Organ Weight Thymus, Mean", "setting": "[6]", "result": 0.67, "unit": "g"}, {"measurement": "Organ Weight Brain", "setting": "[7]", "result": 1.86, "unit": "g"}, {"measurement": "Organ Weight Heart", "setting": "[7]", "result": 1.13, "unit": "g"}, {"measurement": "Organ Weight Kidneys", "setting": "[7]", "result": 2.18, "unit": "g"}, {"measurement": "Organ Weight Liver", "setting": "[7]", "result": 10.84, "unit": "g"}, {"measurement": "Organ Weight Lungs", "setting": "[7]", "result": 1.41, "unit": "g"}, {"measurement": "Organ Weight Ovaries/uterus", "setting": "[7]", "result": 1.14, "unit": "g"}, {"measurement": "Organ Weight Small intestine", "setting": "[7]", "result": 0.65, "unit": "g"}, {"measurement": "Organ Weight Spleen", "setting": "[7]", "result": 0.65, "unit": "g"}, {"measurement": "Organ Weight Thymus", "setting": "[7]", "result": 0.64, "unit": "g"}, {"measurement": "Organ Weight Brain", "setting": "[8]", "result": 1.90, "unit": "g"}, {"measurement": "Organ Weight Heart", "setting": "[8]", "result": 1.11, "unit": "g"}, {"measurement": "Organ Weight Kidneys", "setting": "[8]", "result": 2.30, "unit": "g"}, {"measurement": "Organ Weight Liver", "setting": "[8]", "result": 10.42, "unit": "g"}]}]}
